# Values quoted from earlier work as cited in patent US20100076037A1, “Methods of Treating Neuropathic Pain with Agonists of PPAR-gamma” (priority 2006, published 2010).
# Where two headings read alike, the source gives them in different places.
# What was measured:
# [1] = healthy males; cited from earlier work
# [2] = system: obese Zucker rats; details: cited from earlier work
# [3] = target: mPPARalpha (Mus musculus, UniProt P23204); details: read-out: EC50 reporter gene assay, U2 OS cells; cited from earlier work
# mPPARalpha, sequence (P23204 whole entry): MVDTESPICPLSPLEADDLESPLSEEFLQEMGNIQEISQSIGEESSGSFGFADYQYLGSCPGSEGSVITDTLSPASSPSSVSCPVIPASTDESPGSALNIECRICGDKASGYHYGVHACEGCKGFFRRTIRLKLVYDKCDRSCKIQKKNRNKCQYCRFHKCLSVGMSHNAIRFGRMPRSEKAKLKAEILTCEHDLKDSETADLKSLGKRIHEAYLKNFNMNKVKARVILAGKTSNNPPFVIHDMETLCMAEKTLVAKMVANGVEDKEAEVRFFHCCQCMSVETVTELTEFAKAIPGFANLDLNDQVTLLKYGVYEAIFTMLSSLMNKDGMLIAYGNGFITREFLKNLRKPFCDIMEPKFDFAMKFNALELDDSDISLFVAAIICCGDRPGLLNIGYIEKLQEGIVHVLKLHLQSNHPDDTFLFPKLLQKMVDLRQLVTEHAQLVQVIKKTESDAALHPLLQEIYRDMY
# [4] = system: human apoB/CETP double-transgenic mouse; details: tesaglitazar 1 microM/kg/day for 2 weeks; cited from earlier work
# [5] = 1 mg, cited from earlier work
# [6] = system: high-fat-fed Wistar rats; details: cited from earlier work
# [7] = system: non-diabetic but insulin-resistant patients; details: cited from earlier work; for reduction of prevalence of metabolic syndrome: NCEP ATPIII criteria
# [8] = system: ob/ob mice; details: cited from earlier work
# [9] = system: apoE*3 Leiden transgenic mice; details: cited from earlier work
# [10] = cited from earlier work
# [11] = system: PPARalpha target protein; details: HepG2; cited from earlier work
# [12] = target: T1, P-glycoprotein (Homo sapiens, UniProt P08183); details: cited from earlier work
# T1 construct: host or cells: Caco2 and MDCK-MDR1 monolayers (tie to the P-gp statement is grammatically loose)
# T1 sequence (P08183 whole entry): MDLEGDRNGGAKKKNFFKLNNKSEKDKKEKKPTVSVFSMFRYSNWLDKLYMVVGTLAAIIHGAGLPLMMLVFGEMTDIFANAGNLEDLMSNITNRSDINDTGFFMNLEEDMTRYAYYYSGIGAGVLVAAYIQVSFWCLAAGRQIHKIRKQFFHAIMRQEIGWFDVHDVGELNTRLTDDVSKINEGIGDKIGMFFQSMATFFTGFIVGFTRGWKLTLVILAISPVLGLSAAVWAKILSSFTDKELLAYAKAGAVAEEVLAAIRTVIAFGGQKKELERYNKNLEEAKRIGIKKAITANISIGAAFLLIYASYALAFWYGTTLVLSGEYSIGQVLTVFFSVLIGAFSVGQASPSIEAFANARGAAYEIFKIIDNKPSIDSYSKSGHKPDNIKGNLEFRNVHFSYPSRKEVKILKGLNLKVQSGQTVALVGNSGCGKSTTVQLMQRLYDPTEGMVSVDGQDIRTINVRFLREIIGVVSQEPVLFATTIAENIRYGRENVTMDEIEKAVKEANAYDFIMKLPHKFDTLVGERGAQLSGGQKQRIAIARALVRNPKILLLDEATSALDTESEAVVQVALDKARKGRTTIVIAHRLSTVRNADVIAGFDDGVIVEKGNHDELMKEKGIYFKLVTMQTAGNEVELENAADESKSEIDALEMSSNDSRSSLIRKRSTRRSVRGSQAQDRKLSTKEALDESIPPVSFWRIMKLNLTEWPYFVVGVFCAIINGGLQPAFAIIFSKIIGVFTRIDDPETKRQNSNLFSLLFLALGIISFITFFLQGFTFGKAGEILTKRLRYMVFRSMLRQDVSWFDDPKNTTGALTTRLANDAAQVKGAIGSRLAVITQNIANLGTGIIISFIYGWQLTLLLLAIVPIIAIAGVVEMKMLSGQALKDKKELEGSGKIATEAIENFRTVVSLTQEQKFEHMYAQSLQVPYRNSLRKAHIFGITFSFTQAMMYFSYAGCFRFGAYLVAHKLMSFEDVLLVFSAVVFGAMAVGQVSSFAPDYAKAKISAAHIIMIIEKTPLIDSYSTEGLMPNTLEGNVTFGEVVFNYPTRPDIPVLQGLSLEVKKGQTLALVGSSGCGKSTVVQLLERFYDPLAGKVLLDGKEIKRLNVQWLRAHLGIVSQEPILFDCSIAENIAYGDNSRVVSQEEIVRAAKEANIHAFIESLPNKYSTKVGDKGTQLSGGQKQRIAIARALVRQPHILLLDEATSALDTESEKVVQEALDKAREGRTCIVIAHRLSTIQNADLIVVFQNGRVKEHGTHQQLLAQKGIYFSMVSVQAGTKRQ
# [13] = system: cytochrome P450 (CYP)4A; details: 0.13 microg/kg; cited from earlier work
# [14] = system: multidrug resistance protein 2; details: cited from earlier work
# [15] = system: diabetic patients; details: human, in vivo; cited from earlier work
# [16] = system: recombinant human CYPs (CYP1A2, CYP2A6, CYP2C8, CYP2C9, CYP2C19, CYP2D6 and CYP3A4); details: 0.09 to 200 microM; cited from earlier work
# [17] = system: type 2 diabetic patients; details: cited from earlier work; for decrease of mean fasting plasma glucose, placebo-corrected: 12 weeks
# [18] = system: arterial smooth muscle cells (SMCs); details: 5 or 10 microM; cited from earlier work
# [19] = system: human macrophages; details: 5 microM; cells exposed to high fatty acids and TGs; cited from earlier work
# [20] = dose for 25% reduction in fasting plasma glucose, insulin and serum TG
smiles,measurement,setting,value
"CCO[C@@H](Cc1ccc(OCCc2ccc(OS(C)(=O)=O)cc2)cc1)C(=O)O [tesaglitazar, (S)-2-ethoxy-3-[4-(2-{4-methanesulfonyloxyphenyl}ethoxy)phenyl]propanoic acid]",pharmacokinetic interactions with glibenclamide or metformin,[1],No pharmacokinetic interactions
same,"free fatty acid utilization in adipose tissue, skeletal muscle, liver and heart","[2]; 3 micromol/kg/day for 3 weeks, insulin level-clamped",reduced
same,glucose utilization in muscle and fat,[2]; 3 micromol/kg/day for 3 weeks,increased
same,measures of whole-body insulin sensitivity,"[2]; 3 micromol/kg/day orally, 3 or 4 weeks",consistently improved or normalized
same,normalization of total insulin,"[2]; basal conditions, toward lean control",76%
same,normalization of C-peptide,[2]; basal conditions,61%
same,normalization of TGs,[2]; basal conditions,67%
same,normalization of free fatty acids,[2]; basal conditions,15%
same,glucose infusion rate higher than required in lean controls,[2]; clamp conditions,13%
same,increase of rate of glucose infusion vs untreated rats,[2]; clamp conditions,7.6 fold
same,normalization of C-peptide,[2]; clamp conditions,63%
same,normalization of TGs,[2]; clamp conditions,72%
same,normalization of free fatty acids,[2]; clamp conditions,70%
same,normalization of total insulin,[2]; clamp conditions,82%
same,VLDL apolipoprotein (apo)CIII content,[2]; fasted obese Zucker rats,reduced
same,increase of plasma TG clearance,[2]; fasted obese Zucker rats,490%
same,reduction of rate of hepatic TG production,[2]; fasted obese Zucker rats,47%
same,normalization of postprandial excursion in plasma glucose,[2]; glucose/TG (1.7/2.0 g/kg) test meal,80%
same,normalization of postprandial excursion in TGs,[2]; glucose/TG test meal,92%
same,normalization of postprandial excursion in free fatty acids,[2]; glucose/TG test meal,75%
same,normalization of postprandial excursion in insulin,[2]; glucose/TG test meal,85%
same,EC50,[3],32 µM
same,"plasma TGs, apoB100 and plasma CETP activity",[4],reduced
same,Tmax,[5]; fasted state,1 h
same,Tmax,[5]; fed state,2.5 h
same,basal TG levels,[6]; 1 micromol/kg/day for 1 week,reduced
same,increase of glucose infusion rate during clamping,[6]; 1 micromol/kg/day for 1 week,29%
same,reduction of basal plasma insulin levels,[6]; 1 micromol/kg/day for 1 week,36%
same,increase of uptake of non-esterified fatty acids in white adipose tissue,"[6]; 1 micromol/kg/day for 3 weeks, basal conditions",52%
same,mean increase in serum creatinine,[7]; 0.1 mg,1 µmol/L
same,patients with adverse events,[7]; 0.1 mg,65%
same,reduction in mean hemoglobin level,[7]; 0.1 mg,0.16 mmol/L
same,patients with adverse events,[7]; 0.25 mg,51%
same,reduction of prevalence of metabolic syndrome,[7]; 0.5 mg,49%
same,fall in prevalence of impaired fasting glucose,[7]; 0.5 mg,23%
same,patients with adverse events,[7]; 0.5 mg,67%
same,"mean reduction in fasting serum TGs, placebo-corrected","[7]; 1 mg, 12 weeks",37%
same,reduction of prevalence of metabolic syndrome,[7]; 1.0 mg,45%
same,reduction of AUC for plasma free fatty acids,"[7]; 1 mg, after lipid-rich meal",29%
same,reduction of AUC for plasma insulin,"[7]; 1 mg, after lipid-rich meal",31%
same,reduction of AUC for serum TGs,"[7]; 1 mg, after lipid-rich meal",41%
same,reduction of AUC for serum glycerol,"[7]; 1 mg, after lipid-rich meal",34%
same,reduction of plasma glucose level at 2 h,"[7]; 1 mg, after lipid-rich meal",27%
same,increase in serum HDL-cholesterol,[7]; 1 mg,16%
same,mean reduction in fasting insulin,[7]; 1 mg,35%
same,mean reduction in non-HDL-cholesterol,[7]; 1 mg,15%
same,mean reduction in non-esterified fatty acids,[7]; 1 mg,40%
same,mean reduction in plasma glucose concentration,[7]; 1 mg,0.47 mmol/L
same,reduction in mean hemoglobin level,[7]; 1 mg,0.55 mmol/L
same,fall in prevalence of impaired fasting glucose,[7]; 1.0 mg,59%
same,mean increase in serum creatinine,[7]; 1.0 mg,8 µmol/L
same,patients with adverse events,[7]; 1.0 mg,60%
same,increase in weight,"[7]; 0.5 and 1 mg, 12 weeks",approximately 1 kg
same,increase of ApoA-1,[7]; 1-mg dose,4%
same,reduction of ApoB,[7]; 1-mg dose,12%
same,reduction of ApoB/ApoA-1 ratio,[7]; 1-mg dose,16%
same,reduction of ApoCIII,[7]; 1-mg dose,25%
same,hyperglycemia,[8]; 1 micromol/kg/day for 1 week,normalized
same,potency relative to pioglitazone,[8]; [20],250 fold
same,potency relative to rosiglitazone,[8]; [20],7 fold
same,reduction of plasma cholesterol levels,"[9]; 0.5 microg/kg of diet, low- or high-fat diets",approximately 21.5%
same,reduction of TG levels,[9]; 0.5 microg/kg of diet,approximately 40%
same,reduction of cross-sectional area of atheromic lesions in the aortic root,"[9]; high-fat fed, 28 weeks",92%
same,reduction of cross-sectional area of atheromic lesions in the aortic root,"[9]; low-fat fed, 16 weeks",65%
same,AUC,[10]; 1 mg intravenous,16.2 micromolxh/l
same,AUC,[10]; 1 mg oral,16.1 micromolxh/l
same,adverse events,"[10]; 1 mg po or iv, healthy volunteers",no serious adverse events
same,oral bioavailability,[10]; 1 mg,~100%
same,clearance (Cl),[10]; in vivo,0.16 L/h
same,elimination half-life,[10]; in vivo,~45 h
same,protein-bound,[10]; in vivo,99.9%
same,volume of distribution at steady state (Vdss),[10]; in vivo,9.1 L
same,Cmax,[10]; single 1-mg oral dose,610 nM
same,median Tmax,[10]; single 1-mg oral dose,~30 min
same,potency relative to bezafibrate,[11],approximately 10 fold
same,substrate of P-glycoprotein,[12],not substrates of P-glycoprotein
same,upregulation of CYP4A relative to controls,[13],15 fold
same,transport in Caco2 and MDCK-MDR1 monolayers,[14],apparently transported by multidrug resistance protein 2
same,rates of edema,[15],4.2 to 6.8%
same,effect on activity of CYP drug metabolizing enzymes,[16],no effect
same,"decrease of mean fasting plasma glucose, placebo-corrected",[17]; 0.1 mg once daily,8.9 mg/dL
same,"decrease of mean fasting plasma glucose, placebo-corrected",[17]; 0.5 mg,30.3 mg/dL
same,"decrease of mean fasting plasma glucose, placebo-corrected",[17]; 1.0 mg,41.1 mg/dL
same,greatest increase in serum HDL-cholesterol,[17]; 1 mg,15.0%
same,"decrease of mean fasting plasma glucose, placebo-corrected",[17]; 2.0 mg,55.0 mg/dL
same,"decrease of mean fasting plasma glucose, placebo-corrected",[17]; 3.0 mg,60.9 mg/dL
same,greatest reduction of LDL-cholesterol,[17]; 3 mg,17.3%
same,greatest reduction of VLDL-cholesterol,[17]; 3 mg,52.5%
same,maximum reduction in free fatty acids,[17]; 2-mg dose,36.7%
same,maximum reduction in serum TGs,[17]; 2-mg dose,41.0%
same,decrease of affinity of human LDL for unbound GAGs,[18],3- to 4 fold
same,linoleate-induced production of LDL-binding GAGs,[18],abolished
same,"cholesterol efflux, % of the control level",[19],156%
